Source: a melting point compilation (Tetko et al.; mined from patent text by program, amines drawn as free bases though some values may be those of a salt)

Row | Compound | melting point
1 | CCOC(=O)c1c(O)c2cc(C)ccc2n(Cc2ccccc2)c1=O | 113 °C
2 | COC(=O)C(=Cc1ccc(OC)c(OC)c1)C(C)=O | 93 to 95 °C
3 | CC1(C)OCc2c1nc1ccccc1c2Cl | 108 to 110 °C
4 | COc1ccccc1-n1c(-c2sc(Nc3ccc(Cl)cc3)nc2C)nc2ccccc2c1=O | 225 to 226 °C
5 | O=c1c(Cl)c(OCc2ccc(Cl)cc2)cnn1-c1ccc(Cl)cc1F | 167 to 168 °C
6 | COc1cc(F)nc(N)n1 | 171 to 173 °C
7 | Cc1cc(Cl)c(C(N)=O)cc1[N+](=O)[O-] | 180 to 183 °C
8 | CCCc1nn(C)c2c(=O)n(CCCOc3ccc(OC(C)(C)C(=O)O)cc3)cnc12 | 136 to 138 °C
9 | Nc1nc2cc(Br)ccn2n1 | 190 to 192 °C
10 | COc1c(C)c2c(c(O)c1C/C=C1\CCC(C(=O)O)C1)C(=O)OC2 (stereo not drawn) | 128 to 130 °C
11 | CNc1nc(Cl)c(SC)c(N2CCN(c3ccccc3)CC2)n1 | 163 to 164 °C
12 | N#CC(Br)(Br)c1ccccn1 | 59 to 61 °C
13 | NC(=O)COC(=O)c1ccccc1Cl | 117 to 120 °C
14 | Cc1cc2c(=O)n3cc(C(N)=O)ccc3nc2s1 | 350 to 354 °C
15 | CCCCN1CCN(Cc2nc(-c3ccc4c(c3)Nc3ccccc3S4)cs2)CC1 | 188 to 190 °C
16 | COc1ccc(C(=O)Nc2c(Cl)cncc2Cl)c2c1oc1ccc(NC(=O)NCC(=O)O)cc12 | > 250 °C
17 | O=C(CC1=C(n2nc(-c3c(-c4ccccc4)nn4ccccc34)ccc2=O)CCCC1)N1CCCC1 | 178 to 179 °C
18 | CCOC(=O)C1=Cc2cc(I)ccc2OC1C(F)(F)F (stereo not drawn) | 105 to 106 °C
19 | Oc1nnc(Cl)cc1N1CCNCC1 | 35 °C
20 | O=C1NC(=O)C(Sc2ccc(Cl)cc2)S1 (stereo not drawn) | 109 to 110 °C
21 | CCCCN1CC[C@@H](CNC(=O)c2cc(Cl)c(N)c3c2OCCO3)[C@H](O)C1 (relative stereo) | 122 °C
22 | Cc1nsc(NC(=O)Cc2ccc3oc(CC(C)(C)C)nc3c2)c1Cl | 144 to 145 °C
23 | O=C1NC(=O)C(c2ccc(Oc3ccc(Cl)cc3)cc2)(N2CCN(CC(O)CO)CC2)C(=O)N1 (stereo not drawn) | 257 to 258 °C
24 | O=C(O)Cn1cc(C2(O)CCCC2)nn1 | 124 to 126 °C
25 | CC(C)(C)c1cc(C(=O)Nc2ccc(Cl)c(C(=O)O)c2)cc(C(C)(C)C)c1O | 265 to 267 °C
26 | CCCCN(CCCC)c1ccc(C=CC=Cc2ccc(C=CC3=C(C#N)C(=C(C#N)C#N)OC3(C)C(F)(F)F)s2)c(OC)c1 (stereo not drawn) | 161 to 162 °C

Row | Compound | melting point
27 | CCc1cc(OCc2ccccc2)cc(C(=O)OC)c1C(=O)OC | 66 to 67 °C
28 | COc1ccc(S(=O)(=O)N2C(=O)C(O[Si](C)(C)C)(c3ccccc3Cl)c3cc(Cl)c(OC)cc32)c(OC)c1 (stereo not drawn) | 217 to 219 °C
29 | O=C1Cc2c(ccc3ccc(C(O)C(F)(F)F)cc23)O1 (stereo not drawn) | 208 to 209 °C
30 | CC(=Cc1ccc(S)cc1)c1ccc2c(c1)C(C)(C)CCC2(C)C | 97 to 98 °C
31 | O=c1[nH]c2ccccc2c(=O)n1-c1ccc(Cl)cc1 | 288 to 290 °C
32 | COc1cc2c(cc1O)CCN(Cc1cccnc1)C2 | 165 to 166 °C
33 | CCCCOC(=O)N[C@@H](CC(N)=O)C(=O)N[C@@H](Cc1ccccc1)[C@H](O)C(=O)N1CCC[C@H]1C(=O)NC(C)(C)C | 61 to 65 °C
34 | Cc1cc(C2=NOC(O)(C(F)(F)F)C2Cl)c(F)cc1Cl (stereo not drawn) | 90 to 91 °C
35 | CNc1ncc2cc(-c3c(Cl)cccc3Cl)c(=O)n(C)c2n1 | 243 to 244 °C
36 | Cc1[nH]c(=S)n(Nc2cccc(Cl)c2)c1-c1ccc(Cl)cc1 | 225 °C
37 | O=C1COc2cc(NCC(=O)N3CCC(Oc4ccc(Cl)cc4)CC3)ccc2N1 | 207 to 210 °C
38 | CNC(=NS(C)(=O)=O)SC | 88 to 91 °C
39 | C=CCc1cc(Cc2cnc(N)nc2N)c2ccc(C)nc2c1O | 236 to 237 °C
40 | CS(=O)(=O)c1ccc(-c2cnn(Cc3ccccc3)c(=O)c2Oc2ccc(F)cc2)cc1 | 188 to 190 °C
41 | O=C(Nc1ccc2[nH]c(=O)c(=O)[nH]c2c1)C(F)(F)F | > 330 °C
42 | O=C(C=C1CCCN1)c1ccc(Cl)cc1 | 146 to 147 °C
43 | Cc1ccc(C(=O)N[C@H]2CC[C@H](O)CC2)c(Nc2ccc3[nH]ncc3c2)n1 | > 280 °C
44 | COc1cccc2nc(C)n(C3CCC(=O)NC3=O)c(=O)c12 (stereo not drawn) | 274 to 276 °C
45 | CCOC(=O)c1cnc(SC)nc1Nc1ccc2cn[nH]c2c1 | 212 to 214 °C
46 | CCc1sc(NC(=O)C2=C(O)c3ccc4ccccc4c3S(=O)(=O)N2C)nc1C | 253 to 255 °C
47 | CC(C)(C)OC(=O)/C=C1/CCCCC1n1nc(-c2c(-c3ccccc3)nn3ccccc23)ccc1=O (stereo not drawn) | 110 to 116 °C
48 | COc1ccc(C(C)(C)C)c(O)c1-c1nc2cc(S(=O)(=O)C(F)(F)F)ccc2[nH]1 | 55 to 56 °C
49 | O=C(CC1CCC1)N[C@H]1CC[C@H](CCN2CCN(c3nccc4c3OCC4)CC2)CC1 | 148 °C
50 | CC(=O)OC1(c2ccc(Cl)cc2)CCN(CCCC(=O)c2ccc(F)cc2)CC1 | 106 to 110 °C
51 | COC(CC#N)=NC#N | 45.5 °C
52 | O=C(NC(CS)Cc1ccccc1)N1CCSCC1 (single isomer, unassigned; (+)) | 98 to 100 °C

Row | Compound | melting point
53 | CC(C)(C)OC(=O)NCCc1c[nH]c2ccc(CO)cc12 | 129 to 130 °C
54 | Cn1c(C(F)(F)F)cc(=O)n(-c2ccc3snc(COCC(=O)O)c3c2)c1=O | 191 to 192 °C
55 | CC(C)n1nc(OCc2ccccc2)cc1CO | 81 to 82 °C
56 | CC(=N)Nc1cccc(C(=N)N)c1 | 263 to 265 °C
57 | CC=Cc1ccc(CCNS(=O)(=O)c2ccc(Cl)cc2)cc1 | 153 to 155 °C
58 | COc1ccc(S(=O)(=O)Nc2nc(-c3cccc([N+](=O)[O-])c3)cs2)cc1OC | 185 °C
59 | Cc1cc(COc2ccc(C(=O)NC[C@@H](C(=O)NO)N3CCN(S(=O)(=O)C(C)C)CC3)cc2)c2ccccc2n1 | 188 °C
60 | NC(=O)C1Cc2c([nH]c3ccccc23)C(c2ccccc2)N1C(=O)CCl (stereo not drawn) | 180 to 182 °C
61 | O=c1c(OCCO)c(-c2ccc(OCc3ccccc3)c(OCc3ccccc3)c2)oc2cc(OCc3ccccc3)ccc12 | 137 °C
62 | Cn1cc(C(=O)c2cccc(Cl)c2)cc1C(=O)O | 214 °C
63 | C#Cc1cccc(NC(=O)c2cc(-c3ccc(F)cc3F)ccc2O)c1 | 215 to 216 °C
64 | CCC(C=O)c1ccc(S(C)(=O)=O)cc1 (stereo not drawn) | 202 to 204 °C
65 | BrC=C1c2ccccc2CCc2ccccc21 | 73.6 °C
66 | Cn1ccnc1Sc1ccc(Nc2c(C#N)cnc3cc(F)ccc23)cc1Cl | 268 to 272 °C
67 | N#CCSc1nnc2ccccn12 | 121 to 123 °C
68 | CC(C#N)c1ccc2c(=O)c3ccccc3ccc2c1 (stereo not drawn) | 108 to 109 °C
69 | CC1=C(c2ccc(F)c(F)c2)C(=NO)CC1 | 155 to 156 °C
70 | CCOC(=O)c1[nH]c2cc(C(F)(F)F)ccc2c1NCC(=O)c1ccccc1 | 237 to 239 °C
71 | CCCC(=O)Nc1nc(=O)n(C2OC(C)C(O)C2O)cc1F (stereo not drawn) | 156 to 157 °C
72 | O=C(O)c1ccc(C=CC(=O)c2ccc(O)cc2)cc1 | 300 to 302 °C
73 | CC1Cc2cc(N3C[C@H](CO)OC3=O)ccc2N1C(=O)OCc1ccccc1 (stereo partly drawn) | 144 to 145 °C
74 | Cc1ccc(N)c(C(=O)c2ccccc2)c1 | 64 to 66 °C
75 | CC(=O)NCCCCC1Cc2ccccc2C1 | 83 to 84 °C
76 | Cc1ccc(-c2nccc(-c3cccc(C(=O)O)c3)n2)cc1 | 225 to 226 °C
77 | Cc1ncsc1CCSc1ccnc(CSc2nc3ccccc3[nH]2)c1C | 150 to 152 °C
78 | CNc1c(F)cc2c(=O)c(C(=O)O)cn(-c3ccc(F)c(OC)c3)c2c1Cl | 250 to 253 °C

Row | Compound | melting point
79 | OCCOc1cccc2ncccc12 | 109 to 111 °C
80 | Cc1ccc(NC(=O)OC2CN3CCC2CC3)cc1 (stereo not drawn) | 186 to 188 °C
81 | CC(C)(Cc1ccccc1)C(NC(=O)CCc1ccccc1)Nc1c(Nc2cccnc2)c(=O)c1=O (stereo not drawn) | 221 to 223 °C
82 | COc1cccc(CN2C(=O)CCc3cc(O)c(OC)cc32)c1 | 137 to 138 °C
83 | COc1ccc(/C=C(/C#N)c2cccs2)cc1OC1CCCC1 | 100 to 101 °C
84 | CC[C@H]1COC(=O)N1c1nc(-c2ccc(Br)cc2)c(Cl)s1 | 137 to 139 °C
85 | c1ccc(OCc2ccc3ccccc3n2)cc1 | 79.5 to 80.5 °C
86 | O=C1C=C(O)CC(CCC2CCCC2)(C2CCCC2)O1 (stereo not drawn) | 130 to 132 °C
87 | N=C(NCc1cccs1)NN=Cc1c(Cl)cccc1Cl | 135 to 137 °C
88 | CN(C)c1cc2c(cc1Cl)NC(=O)CC(c1cccc(-c3csc(CO)n3)c1)=N2 | 176 to 178 °C
89 | COc1ccc2c(c1)cc(C=O)n2C | 88 to 90 °C
90 | Cc1n[nH]c2c(C(=O)NC(C)C)c(NC(=O)c3cc(C(F)(F)F)nn3-c3ncccc3Cl)c(Cl)cc12 | 235 to 236 °C
91 | COc1cc2c(cc1Nc1ncc(Cl)c(Nc3ccccc3OCC#N)n1)CCN(CC(=O)N(C)C)CC2 | 77 to 93 °C
92 | Clc1ncc(-c2ccnc(N3CCOCC3)n2)c2ccccc12 | 180 to 181 °C
93 | O=c1c(O)coc2ccccc12 | 178 to 179 °C
94 | O=C1C2=C(CCCC2)C(=O)N1c1ccc(Br)c(O)c1 | 247 to 248 °C
95 | NCc1cccc(N2C(=O)N(c3ccccc3Br)Cc3cnc(Nc4ccccc4)nc32)c1 | 121 °C
96 | CCOC(=O)c1cc(O)c2nc(C)c(C)n2c1 | 219 to 221 °C
97 | COC(=O)C(Cl)=C(NC1CC1)C(C(=O)OC)C(=O)C(F)F (stereo not drawn) | 55 to 57 °C
98 | O=C(C1=C(Nc2ccccc2)CCC1)c1ccccc1Br | 106 to 108 °C
99 | O=C1CCC(c2ccccc2)(c2ccccc2)[C@@H]2CN(C(=O)CC3=CSCSC3)C[C@H]12 (racemic) | 211 °C
100 | O=C(OCC1CC1)c1ncn2c1[C@@H]1CCN1C(=O)c1c(Br)cccc1-2 | 212 to 213 °C
101 | C[Si](C)(C)C#Cc1ccc2c(C(=O)Nc3cccc(C(F)(F)F)c3)cccc2c1 | 134 to 136 °C
102 | COc1ncc(C(=O)N(C)Cc2cc(C(F)(F)F)cc(C(F)(F)F)c2)c(-c2ccccc2)n1 | 101 to 102 °C
103 | ON=c1c2nccc3cccc(c32)n2cccc12 | 254 °C
